Test results taken from US6710060B2, “4-hydroxypiperidine derivatives having antiarrhythmic activity” (Mochida Pharmaceutical Co., Ltd., priority 1999, dated 2004).
Structures can show the parent of a compound that is named as a salt. Where two headings read alike, the source gives them in different places. One block for each molecule: values may come before it.

Key:
[1] = test system: isolated cardiac muscle cells; experiment: Suppression activity of veratrine-induced contracture of isolated cardiac muscle; format: cell-based; conditions: Cardiac muscle cell, 5 min; rat isolated cardiac muscle cells, veratrine 100 gg/mL, 5 minutes after addition, probit analysis; read-out: IC50 (concentration of the test compound when half of the cells were contracted)
Procedure: [Suppression Activity of Veratrine-Induced Contracture of Isolated Cardiac Muscle]
Rats were anesthetized with 40 mg/kg (i.p.) of pentobarbital sodium and held in supine postion, and heparin was injected through the jugular vein. […] A polyethylene tube filled with Krebs-Ringer-HEPES (KRH) solution (pH 7.4) containing 1 mM CaCl2 was inserted through the aorta in retrograde manner, and the tube was fixed. The heart was extracted simultaneously with perfusion of the KRH solution at a hydraulic pressure of 70 cm water column. After thoroughly flushing the remaining blood by spontaneous contraction of the heart, stroke of the heart was halted by perfusion of the Ca^2+ free KRH solution for 10 minutes. The perfusion solutions described above were used after oxygenation with a mixed gas containing 95% O2 and 5% CO2 and keeping at a temperature of 37° C. Then, a KRH solution containing 25 μM CaCl2, 0.06% collagenase and 0.1% albumin was perfused for 20 minutes at 37° C. until the heart was soften. The ventricles were cut into pieces in the collagenase solution at 37° C., followed by an enzyme treatment for 10 minutes while aerating the solution with the mixed gas of 95% O2/5% CO2. The cells were dispersed by pipetting, and connective tissues were removed from the dispersed cells by filtering with a stainless steel mesh. After halting the enzyme reaction by adding albumin in the filtrate, the supernatant was discarded by centrifugation. The cells were suspended in the KRH solution containing 25 μM CaCl2 and 1% albumin, and the Ca^2+ concentration was increased stepwise by sequentially adding the CaCl2 solution in the suspension to a final concentration of 0.5 mM. A pellet of the cells was obtained by centrifugation after allowing the suspension to stand for 10 minutes. The pellet of the cells was laid on a column (10 cm in height and 15 mm in diameter) filled with the KRH solution containing 1 mM CaCl2 and 2% albumin, and the column was allowed to stand for 5 to 10 minutes. The supernatant was gently removed, and the number of rod-shaped cells in the precipitated cells was counted. The cells were re-suspended in the KRH solution containing 1 mM CaCl2 and 0.1% albumin, and pipetted into each well of a 48 well multi-plate (3548, COSTER) coated with poly-L-lysine so that each well contains 0.5 mL of the cell suspension with 1×10^4 cells/well. The suspension in each well was aerated with a mixed gas of 95% O2/5% CO2 at 37° C. for 1 hour to allow the cells to adhere on the bottom of the well. […] Then, the medium was replaced with a KRH solution containing a test compound, 0.025% lactic acid and 1 mM CaCl2, followed by aerating with a mixed gas containing 95% O2/5% CO2 at 37° C. for 30 minutes. After taking a photograph under a microscope, a KRH solution containing veratrine, 0.025% lactic acid and 1 mM CaCl2 was added to each well so that the final concentration of veratrin becomes 100 gg/mL, followed by taking a photograph of morphological changes of the cells after 5 minutes passed from the addition. A change from the rod-shape cell to a spherical cell was defined as contraction by veratrine. Veratrine in this concentration can contract all the cells. The concentration of the test compound when half of the cells were contracted was defined as IC50 (μmol/L) that can be calculated by a probit analysis.

[2] = test system: Ischemia-Reperfusion Induced Arrythmia Model in Rats; experiment: Suppression effect on ischemia-reperfusion induced arrythmia in rats; format: in vivo, rat
Procedure: [Suppression Effect on Ischemia-Reperfusion Induced Arrythmia in Rats]
The test compounds were administered to rats starved from a day before by gavage at a dosage of 10 mL/kg under an awaken condition. The rats were anesthetized with 60 mg/kg (i.p.) of sodium pentobarbital after 35 minutes passed from the administration, and were fixed on a warmed sheet in supine position. The body temperature was kept at 37° C. during the experiment, and artificial respiration was started under a condition of 15 mL/Kg and 55 strokes/minutes. […] Then, the left chest was open, and the left major coronary artery at an atrium side was sewed using a needle with a thread in order to ligate the coronary artery. After stabilizing for about 10 minutes (after 60 minutes passed from the administration), the coronary artery was ligated for 5 minutes, and re-perfused for 10 minutes thereafter. The ligation of the coronary artery was conducted by inserting a suture through a snare made of a polyethylene tube and pulling the both ends of the suture, followed by pressing the snare onto the heart. The re-perfusion was conducted by removing the snare. The aortic blood pressure was measured with a pressure transducer. An electrocardiogram was led by a standard lead II. […] After the completion of the experiments, generation of ventricular fibrillation was confirmed for each individual using an analysis software running on the personal computer, and incidence (%) of the ventricular fibrillation was determined for each administration group.

[3] = test system: Electrocardiogram in Rats; experiment: Effect on electrocardiogram in rats; format: in vivo; conditions: 5 mg/kg intravenous, anesthetized rat, two minutes after administration
Procedure: [Effect on Electrocardiogram in Rats]
After anesthetizing with 1.5 g/kg (s.c.) of urethane, a rat was fixed on a warm plate at its supination. Polyethylene tubes for administering a test compound and for measuring the blood pressure were inserted into and fixed to the jugular vein and femoral artery, respectively. The blood pressure of the artery was measured using a pressure transducer. An electrode was attached to the animal, electrocardiograms were led by the standard lead II. The heart rate was measured by using a heart rate counter. The test compound was given by intravenous injection when the blood pressure and heat rate had been stabilized after the operation. […] Each parameter on the electrocardiogram was processed using an analysis software running on the personal computer to calculate the rate of change as compared with that before administration.

[4] = Table 2-2, 5 mg/kg by gavage, solvent group 57.1
[5] = oral gavage once a day for 14 days, 6-week aged female rats

SMILES: CCCCOc1ccc(N(C)CCC2(O)CCN(CCc3ccc(F)cc3F)CC2)cc1 [Example 183, 4-[2-[N-(4-n-butoxyphenyl)-N-methylamino]ethyl]-1-[2-(2,4-difluorophenyl)ethyl]piperidin-4-ol dihydrochloride]
- IC50 [1]: 1000 nM

SMILES: CC(C)Oc1ccc(N(C)CCC2(O)CCN(C(c3ccccc3)c3ccccc3)CC2)cc1 [Example 278, 1-diphenylmethyl-4-[2-[N-methyl-N-(4-isopropoxyphenyl)-amino]ethyl]piperidin-4-ol dihydrochloride]
- IC50 [1]: 300 nM
- Incidence (%) of the ventricular fibrillation [2, 4]: 0.0%
- PQ Distance (rate of change) [3]: — (The rate of change at two minutes after administration is 15% or less as compared with that before administration.)
- QRS Width (rate of change) [3]: — (The rate of change at two minutes after administration is 15% or less as compared with that before administration.)
- daily dosage at which no fatal cases were observed (female Crj(SD)IGS rats; [5]): ≤ 20 mg/kg

SMILES: CCCCOc1ccc(N(C)CCC2(O)CCN(CCc3ccc(F)cc3)CC2)cc1 [Example 176, 4-[2-[N-(4-n-butoxyphenyl)-N-methylamino]ethyl]-1-[2-(4-fluorophenyl)ethyl]piperidin-4-ol dihydrochloride]
- IC50 [1]: 900 nM
- PQ Distance (rate of change) [3]: — (The rate of change at two minutes after administration is 15% or less as compared with that before administration.)
- QRS Width (rate of change) [3]: — (The rate of change at two minutes after administration is 15% or less as compared with that before administration.)

- IC50 [1]: 300 nM
SMILES: CC(C)Oc1ccc(N(C)CCC2(O)CCN(Cc3ccc(C(F)(F)F)cc3)CC2)cc1 [Example 221, 4-[2-[N-methyl-N-(4-isopropoxyphenyl)amino]ethyl]-1-[4-(trifluoromethyl)phenylmethyl]piperidin-4-ol dihydrochloride]

- IC50 [1]: 700 nM
SMILES: CC(C)Oc1ccc(N(C)CCC2(O)CCN(Cc3ccc(Br)cc3F)CC2)cc1 [Example 240, 1-(4-bromo-2-fluorophenylmethyl)-4-[2-[N-methyl-N-(4-isopropoxyphenyl)amino]ethyl]piperidin-4-ol dihydrochloride]
- Incidence (%) of the ventricular fibrillation [2, 4]: 0.0%
- PQ Distance (rate of change) [3]: — (The rate of change at two minutes after administration is 15% or less as compared with that before administration.)
- QRS Width (rate of change) [3]: — (The rate of change at two minutes after administration is 15% or less as compared with that before administration.)

SMILES: CCCCOc1ccc(N(C)CC2(O)CCN(Cc3ccccc3)CC2)cc1 [Example 210, 1-benzyl-4-[N-(4-n-butoxyphenyl)-N-methylamino]-methylpiperidin-4-ol monomaleate]
- IC50 [1]: 900 nM

- IC50 [1]: 700 nM
SMILES: CC(C)Oc1ccc(N(C)CCC2(O)CCN(Cc3ccc(Br)cc3)CC2)cc1 [Example 220, 1-(4-bromophenylmethyl)-4-[2-[N-methyl-N-(4-isopropoxyphenyl)amino]ethyl]piperidin-4-ol dihydrochloride]

SMILES: COC(=O)c1ccc(CN2CCC(O)(CCN(C)c3ccc(OC(C)C)cc3)CC2)cc1 [Example 233, 1-[4-(methoxycarbonyl)phenylmethyl]-4-[2-[N-methyl-N-(4-isopropoxyphenyl)amino]ethylipiperidin-4-oldihydrochloride]
- Incidence (%) of the ventricular fibrillation [2, 4]: 28.6%
- PQ Distance (rate of change) [3]: — (The rate of change at two minutes after administration is 15% or less as compared with that before administration.)
- QRS Width (rate of change) [3]: — (The rate of change at two minutes after administration is 15% or less as compared with that before administration.)
- daily dosage at which no fatal cases were observed (female Crj(SD)IGS rats; female, Crj(SD)IGS, rat, in vivo, po, 14 days): ≤ 50 mg/kg

- IC50 [1]: 300 nM
SMILES: CC(C)Oc1ccc(N(C)CCC2(O)CCN(Cc3ccc(OC(F)(F)F)cc3)CC2)cc1 [Example 236, 4-[2-[N-methyl-N-(4-isopropoxyphenyl)amino]ethyl]-1-(4-trifluoromethoxyphenylmethyl)piperidin-4-ol dihydrochloride]

SMILES: CCCCOc1ccc(N(C)CCC2(O)CCN(Cc3ccccc3)CC2)cc1 [Example 146, 1-benzyl-4-[2-[N-(4-n-butoxyphenyl)-N-methylamino]ethyl]piperidin-4-ol dihydrochloride]
- IC50 [1]: 1200 nM
- Incidence (%) of the ventricular fibrillation ([2]; Table 2-1, 5 mg/kg by gavage, ligation 60 min after administration, solvent group 63.6): 30.0%
- Incidence (%) of the ventricular fibrillation ([2]; Table 2-1, 10 mg/kg by gavage, solvent group 63.6): 11.1%
- Incidence (%) of the ventricular fibrillation ([2]; Table 2-1, 20 mg/kg by gavage, solvent group 63.6): 0.0%
- PQ Distance (rate of change) [3]: — (The rate of change at two minutes after administration is 15% or less as compared with that before administration.)
- QRS Width (rate of change) [3]: — (The rate of change at two minutes after administration is 15% or less as compared with that before administration.)
- daily dosage at which no fatal cases were observed (female Crj(SD)IGS rats; [5]): ≤ 100 mg/kg
